According to ChEMBL document CHEMBL1201862, “PubChem BioAssay data set” (2004):
Active and inactive are the calls of the source.

What was measured:
[1] = target: T1, Alkaline phosphatase, tissue-nonspecific isozyme (Homo sapiens, UniProt P05186); assay: TNAP enzyme inhibition by screening hits, dose response, selectivity assay for mouse IAP inhibitor project, biochemical, human TNAP, uHTS hits (AID 488906); type: functional
T1 sequence (P05186 whole entry): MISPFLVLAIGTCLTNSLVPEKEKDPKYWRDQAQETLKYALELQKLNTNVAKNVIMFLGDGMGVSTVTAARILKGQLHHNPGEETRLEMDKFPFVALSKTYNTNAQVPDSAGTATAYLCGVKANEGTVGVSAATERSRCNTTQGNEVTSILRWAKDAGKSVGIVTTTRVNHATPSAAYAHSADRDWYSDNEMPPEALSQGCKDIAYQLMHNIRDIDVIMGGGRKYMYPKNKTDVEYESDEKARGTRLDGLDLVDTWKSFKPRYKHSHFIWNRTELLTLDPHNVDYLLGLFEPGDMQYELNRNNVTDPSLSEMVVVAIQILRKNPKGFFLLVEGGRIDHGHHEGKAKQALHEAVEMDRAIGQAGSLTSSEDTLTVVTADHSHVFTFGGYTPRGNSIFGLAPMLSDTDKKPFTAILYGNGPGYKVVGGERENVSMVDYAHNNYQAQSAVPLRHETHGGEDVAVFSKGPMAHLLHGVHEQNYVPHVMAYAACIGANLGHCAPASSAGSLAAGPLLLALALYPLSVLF

[2] = target: Intestinal-type alkaline phosphatase (Homo sapiens, UniProt P09923); assay: inhibition of human intestinal alkaline phosphatase – biochemical, dose response (AID 488876); type: functional
Intestinal-type alkaline phosphatase (Homo sapiens, UniProt P09923), sequence (P09923 whole entry): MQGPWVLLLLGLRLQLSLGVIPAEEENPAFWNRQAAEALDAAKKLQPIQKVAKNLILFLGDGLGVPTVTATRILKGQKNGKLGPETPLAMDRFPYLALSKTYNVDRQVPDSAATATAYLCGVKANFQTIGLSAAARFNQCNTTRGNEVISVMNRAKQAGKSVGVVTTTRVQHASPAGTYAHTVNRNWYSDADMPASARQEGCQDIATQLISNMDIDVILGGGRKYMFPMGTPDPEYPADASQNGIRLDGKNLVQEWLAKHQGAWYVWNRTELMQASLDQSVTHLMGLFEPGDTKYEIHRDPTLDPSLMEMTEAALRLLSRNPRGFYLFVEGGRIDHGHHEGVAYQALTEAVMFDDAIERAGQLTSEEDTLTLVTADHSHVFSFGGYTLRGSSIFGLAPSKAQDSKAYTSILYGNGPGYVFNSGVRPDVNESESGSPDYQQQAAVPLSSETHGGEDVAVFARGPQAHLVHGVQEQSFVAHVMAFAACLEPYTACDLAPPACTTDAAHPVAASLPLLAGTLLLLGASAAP

[3] = target: Intestinal-type alkaline phosphatase (Mus musculus, UniProt P24822); assay: PubChem AID 488785; type: functional
Intestinal-type alkaline phosphatase (Mus musculus, UniProt P24822), sequence (P24822 whole entry): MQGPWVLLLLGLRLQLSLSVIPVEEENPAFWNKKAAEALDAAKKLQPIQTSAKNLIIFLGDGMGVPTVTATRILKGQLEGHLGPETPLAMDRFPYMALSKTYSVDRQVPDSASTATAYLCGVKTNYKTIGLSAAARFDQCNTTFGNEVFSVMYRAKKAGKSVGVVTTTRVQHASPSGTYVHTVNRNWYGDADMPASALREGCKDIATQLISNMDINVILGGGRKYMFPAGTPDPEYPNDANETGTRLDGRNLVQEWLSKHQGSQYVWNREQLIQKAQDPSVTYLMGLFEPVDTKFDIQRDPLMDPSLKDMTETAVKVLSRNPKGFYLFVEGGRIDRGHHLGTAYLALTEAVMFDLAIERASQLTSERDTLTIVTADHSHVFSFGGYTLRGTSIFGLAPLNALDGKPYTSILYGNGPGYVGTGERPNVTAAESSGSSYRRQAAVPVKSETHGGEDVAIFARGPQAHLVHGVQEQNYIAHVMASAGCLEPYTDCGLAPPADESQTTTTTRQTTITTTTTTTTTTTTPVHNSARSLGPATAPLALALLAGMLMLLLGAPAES

[4] = system: BJ; assay: BJ-TERT-LT-ST fibroblast viability loss – cell-based, RAS-independent, luminescence, dose response (AID 1935); type: functional; details: Homo sapiens;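 further: BJ fibroblasts immortalized with TERT plus LT and ST oncogenes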
[5] = Luminescence Cell-Based Dose Response HTS to Identify Inhibitors of 5'UTR Stem-Loop Driven Prion Protein mRNA Translation in H4 Neuroglioblastoma Cells. [Related pubchem assays: 1827 (Project Summary), 1813 (Primary HTS)]; type: functional
[6] = luciferase reporter signal suppression in cells – H4 neuroglioma cells, luminescence, dose response (AID 1990); type: functional, cell-based
[7] = system: BJ; assay: BJ-TERT fibroblast viability loss – cell-based, RAS-independent, luminescence, dose response (AID 1933); type: functional; details: Homo sapiens
[8] = system: BJ; assay: cells; type: functional, cell-based, Homo sapiens; details: Homo sapiens, BJ
[9] = system: Streptococcus; assay: GAS UMAA2166 growth inhibition – luminescence, BacTiterGlo, counter-screen for streptokinase expression inhibitor project, dose response (AID 1915); type: functional, organism-based;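 further: potency for reduction of bacterial viability or growth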
[10] = target: T2, Short transient receptor potential channel 4 (Mus musculus, UniProt Q9QUQ5); assay: calcium entry via TRPC4 opening agents – cell-based, HEK293 TRPC4/mu-opioid, Fluo-4 calcium, dose response (AID 434937); type: functional
T2 sequence (Q9QUQ5 whole entry): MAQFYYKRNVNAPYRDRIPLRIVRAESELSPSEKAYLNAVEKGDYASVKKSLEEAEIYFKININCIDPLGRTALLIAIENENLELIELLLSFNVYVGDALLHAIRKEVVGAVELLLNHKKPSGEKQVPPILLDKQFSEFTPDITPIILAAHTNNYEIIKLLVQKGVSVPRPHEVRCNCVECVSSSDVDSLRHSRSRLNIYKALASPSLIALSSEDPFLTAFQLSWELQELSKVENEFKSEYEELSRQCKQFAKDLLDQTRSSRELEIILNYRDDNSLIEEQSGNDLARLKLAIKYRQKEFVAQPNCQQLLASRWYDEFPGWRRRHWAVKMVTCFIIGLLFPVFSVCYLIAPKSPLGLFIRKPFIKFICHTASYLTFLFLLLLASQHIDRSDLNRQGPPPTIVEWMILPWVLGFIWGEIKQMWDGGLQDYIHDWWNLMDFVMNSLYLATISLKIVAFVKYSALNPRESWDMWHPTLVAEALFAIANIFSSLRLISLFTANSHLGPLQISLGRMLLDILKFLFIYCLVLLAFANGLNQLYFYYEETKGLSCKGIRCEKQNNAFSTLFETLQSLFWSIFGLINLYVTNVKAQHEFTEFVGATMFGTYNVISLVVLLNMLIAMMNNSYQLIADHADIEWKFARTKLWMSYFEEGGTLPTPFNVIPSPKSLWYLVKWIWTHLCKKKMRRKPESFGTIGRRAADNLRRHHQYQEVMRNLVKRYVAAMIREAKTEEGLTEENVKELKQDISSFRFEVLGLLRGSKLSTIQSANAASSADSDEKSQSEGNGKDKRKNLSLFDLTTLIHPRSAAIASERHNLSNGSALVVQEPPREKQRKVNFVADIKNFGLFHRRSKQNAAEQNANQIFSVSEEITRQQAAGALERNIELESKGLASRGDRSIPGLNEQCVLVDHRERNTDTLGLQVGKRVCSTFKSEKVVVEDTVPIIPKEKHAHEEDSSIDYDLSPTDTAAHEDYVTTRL

[11] = system: Streptococcus sp. 'group A'; assay: Streptococcus pyogenes SK(-)GAS viability under kanamycin – luminescence, BacTiterGlo, confirmation, counter-screen for streptokinase expression inhibitor project, dose response (AID 1900); type: functional, organism-based
[12] = target: T3, Protein RecA (Mycobacterium tuberculosis, UniProt P9WHJ3); assay: Fluorescence Cell-Free Homogeneous Dose Retest to Identify Inhibitors of RecA-Intein Splicing Activity. [Related pubchem assays (depositor defined):AID2097, AID2223, AID489010, AID492950]; type: functional
T3 sequence (P9WHJ3 whole entry): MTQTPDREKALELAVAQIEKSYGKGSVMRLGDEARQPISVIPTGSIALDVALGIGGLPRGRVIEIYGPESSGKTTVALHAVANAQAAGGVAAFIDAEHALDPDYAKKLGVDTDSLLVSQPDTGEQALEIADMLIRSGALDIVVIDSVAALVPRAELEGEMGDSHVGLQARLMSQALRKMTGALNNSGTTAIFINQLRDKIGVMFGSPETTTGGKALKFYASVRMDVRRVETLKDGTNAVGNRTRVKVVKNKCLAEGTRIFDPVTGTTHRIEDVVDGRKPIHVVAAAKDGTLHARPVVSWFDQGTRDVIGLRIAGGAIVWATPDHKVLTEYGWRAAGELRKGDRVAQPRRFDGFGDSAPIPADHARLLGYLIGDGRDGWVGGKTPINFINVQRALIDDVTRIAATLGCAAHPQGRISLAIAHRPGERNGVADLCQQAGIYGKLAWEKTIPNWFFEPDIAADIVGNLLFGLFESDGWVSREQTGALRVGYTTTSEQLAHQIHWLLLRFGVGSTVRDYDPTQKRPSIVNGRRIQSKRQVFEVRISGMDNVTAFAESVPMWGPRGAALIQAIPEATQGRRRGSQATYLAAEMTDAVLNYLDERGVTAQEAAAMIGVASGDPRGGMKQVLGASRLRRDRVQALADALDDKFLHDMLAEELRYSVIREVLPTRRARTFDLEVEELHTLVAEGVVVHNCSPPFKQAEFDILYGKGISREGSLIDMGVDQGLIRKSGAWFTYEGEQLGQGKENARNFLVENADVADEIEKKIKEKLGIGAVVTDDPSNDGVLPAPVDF

[13] = HEK-293T viability loss after treatment – luminescence, T-cell screen hits, cytotoxicity control for TCR NF-kB inhibitor project, dose response (AID 489026); type: functional, cell-based;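 further: cells exposed to compound about 14 hours before the viability readout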
[14] = cells; type: functional, cell-based
[15] = target: T4, Replicative DNA helicase DnaB (Mycobacterium tuberculosis, UniProt P9WMR3); assay: DnaB intein splicing inhibitors, dose response, biochemical, cell-free fluorescence (AID 449749); type: functional
T4 sequence (P9WMR3 whole entry): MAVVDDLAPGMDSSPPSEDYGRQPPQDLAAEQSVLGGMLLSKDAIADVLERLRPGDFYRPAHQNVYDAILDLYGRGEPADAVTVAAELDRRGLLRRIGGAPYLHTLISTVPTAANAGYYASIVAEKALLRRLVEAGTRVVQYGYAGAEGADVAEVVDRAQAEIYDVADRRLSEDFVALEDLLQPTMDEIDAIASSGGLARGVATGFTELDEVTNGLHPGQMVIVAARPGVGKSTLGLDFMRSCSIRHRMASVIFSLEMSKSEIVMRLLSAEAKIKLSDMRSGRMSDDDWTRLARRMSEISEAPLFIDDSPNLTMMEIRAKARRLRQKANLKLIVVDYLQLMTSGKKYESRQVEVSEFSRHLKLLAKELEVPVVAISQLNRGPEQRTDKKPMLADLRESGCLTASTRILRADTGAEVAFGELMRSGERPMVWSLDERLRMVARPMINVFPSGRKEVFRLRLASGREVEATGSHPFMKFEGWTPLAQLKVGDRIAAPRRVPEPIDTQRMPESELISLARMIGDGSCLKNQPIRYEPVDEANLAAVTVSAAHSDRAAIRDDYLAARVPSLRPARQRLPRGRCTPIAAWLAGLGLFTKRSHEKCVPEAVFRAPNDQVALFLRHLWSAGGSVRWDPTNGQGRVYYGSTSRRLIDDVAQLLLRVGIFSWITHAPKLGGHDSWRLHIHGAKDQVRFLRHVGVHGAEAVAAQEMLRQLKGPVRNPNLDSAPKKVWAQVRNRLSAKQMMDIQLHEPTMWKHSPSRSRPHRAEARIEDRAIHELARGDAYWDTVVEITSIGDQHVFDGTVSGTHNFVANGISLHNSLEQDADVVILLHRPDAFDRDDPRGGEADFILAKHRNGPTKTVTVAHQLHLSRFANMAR

[16] = target: Exodeoxyribonuclease V (Escherichia coli (strain K12), UniProt P04993+P07648+P08394); assay: RecBCD inhibition via phage-restricted bacterial growth – absorbance, V66 E. coli, mutant T4 phage, counter-screen for AddAB inhibitor project, dose response (AID 492957); type: functional, cell-based, Escherichia coli str. K-12 substr. MG1655
[17] = Counterscreen for AddAB inhibitors: absorbance-based bacterial cell-based high throughput dose response assay for inhibitors of bacterial viability. [Related pubchem assays (depositor defined):AID435030, AID449728, AID449731, AID488942, AID488955, AID488956]; type: functional
[18] = luciferase reporter signal reduction – luminescence, H4-C neuroglioblastoma cells, dose response (AID 2458); type: functional, cell-based;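 further: H4 neuroglioblastoma cells stably carrying a luciferase reporter gene fusion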
[19] = alpha-synuclein stem-loop luciferase translation blockers – H4 neuroglioma cells, luminescence, confirmation (AID 1988); type: functional, cell-based
[20] = DRD fibroblast viability loss – cell-based, non-viral oncogenic, luminescence, dose response (AID 1934); type: functional; details: Homo sapiens
[21] = alpha-synuclein stem-loop translation blockers – luminescence, H4 neuroglioblastoma cells, dose confirmation, confirmation (AID 2454); type: functional, cell-based;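 further: H4 neuroglioblastoma cells carrying an alpha-synuclein 5'UTR luciferase reporter; potency for inhibition of the luciferase signal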
[22] = target: Prothrombin (Homo sapiens, UniProt P00734); assay: Thrombin 1536 HTS Dose Response Confirmation. [Related pubchem assays: 1046 (Thrombin 1536 HTS; hits were confirmed in this assay)]; type: functional
[23] = target: T5, Tyrosine-protein phosphatase non-receptor type 22 (Homo sapiens, UniProt Q9Y2R2); type: functional
T5 sequence (Q9Y2R2 whole entry): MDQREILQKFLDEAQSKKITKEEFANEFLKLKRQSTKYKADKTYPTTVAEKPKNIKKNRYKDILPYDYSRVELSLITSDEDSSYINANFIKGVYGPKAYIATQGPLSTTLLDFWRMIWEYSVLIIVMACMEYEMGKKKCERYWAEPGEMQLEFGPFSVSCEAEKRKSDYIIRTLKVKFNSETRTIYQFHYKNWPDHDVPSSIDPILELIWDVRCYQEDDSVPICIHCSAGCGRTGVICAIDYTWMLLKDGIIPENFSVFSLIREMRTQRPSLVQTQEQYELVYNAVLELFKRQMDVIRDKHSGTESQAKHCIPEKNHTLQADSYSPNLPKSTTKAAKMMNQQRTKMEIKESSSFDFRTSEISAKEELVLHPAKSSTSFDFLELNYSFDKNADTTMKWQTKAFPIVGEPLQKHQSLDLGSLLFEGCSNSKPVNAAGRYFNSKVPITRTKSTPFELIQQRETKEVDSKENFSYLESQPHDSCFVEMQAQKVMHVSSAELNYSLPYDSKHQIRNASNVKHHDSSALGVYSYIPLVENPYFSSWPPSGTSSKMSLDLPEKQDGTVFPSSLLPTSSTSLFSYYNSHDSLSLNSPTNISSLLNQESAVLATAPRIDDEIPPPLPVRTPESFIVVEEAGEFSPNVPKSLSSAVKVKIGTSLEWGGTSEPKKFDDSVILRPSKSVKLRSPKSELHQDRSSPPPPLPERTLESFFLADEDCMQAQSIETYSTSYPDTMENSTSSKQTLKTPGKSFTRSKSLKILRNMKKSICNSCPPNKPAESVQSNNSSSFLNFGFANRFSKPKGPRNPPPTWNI

[24] = target: Tyrosine-protein phosphatase non-receptor type 7 (Homo sapiens, UniProt P35236); type: functional
Tyrosine-protein phosphatase non-receptor type 7, sequence (P35236 whole entry): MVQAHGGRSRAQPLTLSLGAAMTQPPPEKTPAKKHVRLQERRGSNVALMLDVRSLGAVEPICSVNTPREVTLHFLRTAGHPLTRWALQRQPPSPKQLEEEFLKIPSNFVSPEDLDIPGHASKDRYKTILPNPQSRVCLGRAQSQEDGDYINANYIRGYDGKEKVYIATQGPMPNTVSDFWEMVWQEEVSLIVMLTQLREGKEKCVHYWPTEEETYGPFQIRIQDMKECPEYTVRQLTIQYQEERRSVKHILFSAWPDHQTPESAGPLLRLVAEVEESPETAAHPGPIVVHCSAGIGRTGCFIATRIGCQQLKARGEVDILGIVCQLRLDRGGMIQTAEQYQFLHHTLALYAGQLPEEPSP

[25] = target: T5, Tyrosine-protein phosphatase non-receptor type 22; type: functional; remark: listed apart in the source
[26] = target: G-protein coupled receptor 55 (Homo sapiens, UniProt Q9Y2T6); assay: SAR Analysis of Selective Antagonists of GPR55 using an Image-Based Assay - Set 4. [Related pubchem assays (depositor defined):AID2013, AID2026]; type: functional;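 further: antagonism of response to 5 µM lysophosphatidylinositol agonist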
G-protein coupled receptor 55, sequence (Q9Y2T6 whole entry): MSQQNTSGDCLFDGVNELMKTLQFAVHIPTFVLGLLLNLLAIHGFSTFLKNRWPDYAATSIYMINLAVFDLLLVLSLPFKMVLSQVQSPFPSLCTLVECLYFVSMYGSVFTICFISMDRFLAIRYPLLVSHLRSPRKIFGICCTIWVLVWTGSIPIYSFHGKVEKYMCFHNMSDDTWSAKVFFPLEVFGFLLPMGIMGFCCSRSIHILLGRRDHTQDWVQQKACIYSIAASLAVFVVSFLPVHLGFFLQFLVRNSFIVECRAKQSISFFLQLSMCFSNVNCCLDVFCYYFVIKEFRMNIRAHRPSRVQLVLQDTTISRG

[27] = target: T6, G-protein coupled receptor 35 (Homo sapiens, UniProt Q9HC97); assay: SAR analysis of Antagonists of the GPR35 Receptor using an Image-Based Assay - Set 6. [Related pubchem assays (depositor defined):AID2013, AID2026]; type: functional
T6 sequence (Q9HC97 whole entry): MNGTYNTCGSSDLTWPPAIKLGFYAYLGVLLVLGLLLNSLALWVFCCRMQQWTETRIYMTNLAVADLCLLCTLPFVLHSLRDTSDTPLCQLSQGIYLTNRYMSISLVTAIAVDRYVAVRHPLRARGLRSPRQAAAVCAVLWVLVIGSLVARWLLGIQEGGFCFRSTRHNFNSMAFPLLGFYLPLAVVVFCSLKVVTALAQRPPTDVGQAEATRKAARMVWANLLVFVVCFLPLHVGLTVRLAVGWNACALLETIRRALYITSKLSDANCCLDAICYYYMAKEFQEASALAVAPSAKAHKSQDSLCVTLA

[28] = target: T6, G-protein coupled receptor 35; assay: SAR analysis of Agonists of the GPR35 Receptor using an Image-Based Assay - Set 4. [Related pubchem assays (depositor defined):AID2013, AID2026]; type: functional
[29] = target: T7, Cannabinoid receptor 1 (Homo sapiens, UniProt P21554); assay: SAR analysis of agonists of the Cannabinoid Receptor 1 using an Image-Based Assay - Set 4. [Related pubchem assays (depositor defined):AID2013, AID2026]; type: functional
T7 sequence (P21554 whole entry): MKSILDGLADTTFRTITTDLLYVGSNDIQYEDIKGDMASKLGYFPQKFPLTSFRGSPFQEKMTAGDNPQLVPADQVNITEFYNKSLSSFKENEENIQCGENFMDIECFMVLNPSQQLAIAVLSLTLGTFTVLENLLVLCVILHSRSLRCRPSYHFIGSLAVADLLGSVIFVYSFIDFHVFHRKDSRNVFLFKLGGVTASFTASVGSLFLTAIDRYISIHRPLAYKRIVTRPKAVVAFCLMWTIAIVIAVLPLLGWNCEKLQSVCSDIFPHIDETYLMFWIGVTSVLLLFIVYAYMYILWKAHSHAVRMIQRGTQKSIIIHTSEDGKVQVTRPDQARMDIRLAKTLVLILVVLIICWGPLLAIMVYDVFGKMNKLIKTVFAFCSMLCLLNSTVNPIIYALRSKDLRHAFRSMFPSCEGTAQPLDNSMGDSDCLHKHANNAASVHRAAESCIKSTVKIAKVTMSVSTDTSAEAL

[30] = target: T8, Cannabinoid receptor 2 (Homo sapiens, UniProt P34972); assay: SAR analysis of antagonists of the Cannabinoid Receptor 2 using an Image-Based Assay - Set 3. [Related pubchem assays (depositor defined):AID2013, AID2026]; type: functional
T8 sequence (P34972 whole entry): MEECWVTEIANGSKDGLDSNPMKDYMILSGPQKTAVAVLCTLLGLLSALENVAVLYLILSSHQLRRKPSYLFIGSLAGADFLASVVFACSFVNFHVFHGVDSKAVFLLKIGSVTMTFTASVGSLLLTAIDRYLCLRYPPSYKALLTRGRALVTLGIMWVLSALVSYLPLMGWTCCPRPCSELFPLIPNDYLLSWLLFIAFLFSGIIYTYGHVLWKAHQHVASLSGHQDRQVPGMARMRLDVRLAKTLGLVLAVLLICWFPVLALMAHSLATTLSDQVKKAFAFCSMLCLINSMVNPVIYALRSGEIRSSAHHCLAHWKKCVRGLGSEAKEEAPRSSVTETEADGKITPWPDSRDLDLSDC

[31] = target: T8, Cannabinoid receptor 2; assay: SAR analysis of agonists of the Cannabinoid Receptor 2 using an Image-Based Assay - Set 3. [Related pubchem assays (depositor defined):AID2013, AID2026]; type: functional
[32] = target: T7, Cannabinoid receptor 1; assay: SAR analysis of antagonists of the Cannabinoid Receptor 1 using an Image-Based Assay - Set 4. [Related pubchem assays (depositor defined):AID2013, AID2026]; type: functional

## S=C(NCc1ccccc1)NC1CCSc2ccccc21 (centres undefined)
[1]
  IC50: 45.5 µM (active)
[2]
  IC50: 60.7 µM (active)
[3]
  IC50: 3.3 µM (active)

## Cc1ccc(C[n+]2c(-c3ccc(C)cc3)cc(-c3ccc(C)cc3)cc2-c2ccc(C)cc2)cc1.[O-][Cl+3]([O-])([O-])[O-]
[4]
  EC50: 2.7 µM (inconclusive)
[5]
  EC50: 4.41 µM (active)
[6]
  EC50: < 0.1 µM (active)
[7]
  EC50: 1.07 µM (inconclusive)
[8]
  EC50: 1.23 µM (inconclusive)
[9]
  EC50: 7.91 µM (active)
[10]
  EC50: 5.31 µM (active)
[11]
  EC50: 3.71 µM (active)
[12]
  EC50: 8.2 µM (active)
[13]
  IC50: 25.9 µM (inactive)
[14]
  EC50: 3.46 µM (active)
[15]
  AC50: 3.61 µM (active)
[16]
  IC50: 20.1 µM (inactive)
[17]
  IC50: 18.5 µM (inactive)
[18]
  EC50: 1.62 µM (active)
[19]
  EC50: < 0.1 µM (active)
[20]
  EC50: 1.31 µM (active)
[21]
  EC50: 0.793 µM (active)

## CSc1nc(-c2ccc(Cl)cc2)nn1C(=O)c1ccco1
[22]
  IC50: 2.31 µM (active)
[12]
  EC50: > 380 µM (inactive)
[23]
  IC50: > 79.4 µM (inactive)
[24]
  IC50: > 79.4 µM (inactive)
[15]
  AC50: 0.387 µM (active)
[25]
  IC50: > 79.4 µM (inactive)

## Cc1ccc(-n2cc3c(-c4ccccc4)nnc(C)c3n2)cc1
[26]
  IC50: 6.89 µM (active)
[27]
  IC50: > 32 µM (inactive)
[28]
  EC50: > 32 µM (inactive)
[29]
  EC50: > 32 µM (inactive)
[30]
  IC50: > 32 µM (inactive)
[31]
  EC50: > 32 µM (inactive)
[32]
  IC50: 8.66 µM (active)
